Literature values in patent US20050070607A1, “N-acetylcysteine compositions and methods for the treatment and prevention of cysteine/glutathione deficiency in diseases and conditions” (priority 2003, published 2005).

Experiments:
chronic renal failure = conditions: regular users consuming >=1.4 g/day on average, absence of aspirin use; Fored[184]
human atherosclerosis = conditions: brachial artery flow-mediated dilation; 4.5 g OTC po; n 48; 4 hours; Vita 1998[15]
HIV infected individuals = conditions: whole blood GSH; OTC 1500-3000 mg/day po; n 37; 4 weeks; Barditch-Crovo 1998[283]
acute lung injury = conditions: RBC GSH, days of acute lung injury, cardiac index; NAC 70 mg/kg q 8 hr IV; OTZ 63 mg/kg q 8 hr IV; n 48; 10 days; Bernard 1997[222]
Cystic Fibrosis (CF) = conditions: air trapping and FEV1; NAC or Ambroxol 200 mg 3 times daily; n 36; 12 weeks; Ratjen 1985[274]

For `CC(=O)Nc1ccc(O)cc1` [acetaminophen], the “relative risk of chronic renal failure” value (chronic renal failure) is listed as 5.3.

For `O=C1N[C@H](C(=O)O)CS1` [OTC, L-2-oxothiazolidine-4-carboxylic acid], the Beneficial effects (human atherosclerosis) is given as “Beneficial” and the Beneficial effects (HIV infected individuals) is given as “Beneficial”.

In the case of `CSCC[C@H](N)C(=O)O` [methionine], the “Hearing loss and cochlear damage from aminoglycoside antibiotics and cisplatin” value (cochlea; animal models [245-247]) is given as “greatly reduced” and the “permanent cochlear damage due to acute acoustic overexposure” value (cochlea; animal models, systemic administration [246,248]) is given as “almost completely prevented”.

For `O=C1N[C@H](C(=O)O)CS1` [OTZ], the Beneficial effects (acute lung injury) is given as “Beneficial”.

In the case of `Nc1c(Br)cc(Br)cc1CN[C@H]1CC[C@H](O)CC1` [Ambroxol], the Beneficial effects (Cystic Fibrosis (CF)) is listed as “Beneficial”.
